Experimental data reported in patent US20140033367A1 (priority 2010, published 2014).

Key:
[1] = test system: protoplasts from UT leaves; assay: Protoplast culture with hormones or hormone conjugates, UT protoplasts; assay type: cell-based, Nicotiana tabacum; settings: for Division Efficiency / Plating Efficiency: hormone concentration in mg L^−1
Experimental: (§1) To evaluate the effects of hormones or hormone conjugates on protoplast division, six hormones or conjugate combinations (Table IV) were tested in the protoplast culture.
(§2) The protocol of the protoplast isolation was modified from the method of Rao and Prakash (1995). Leaves from BGL-1 and UT were cut into small pieces and placed on the surface of the enzyme solution with the lower surface down. Incubation was carried out in the dark at a temperature of 25° C.±1° C. for 8 h to release the protoplasts. The enzymatic cocktail contained 2% (w/v) cellulase Onozuka R-10, 0.5% (w/v) macerozyme R-10, 0.2% (w/v) dextran potassium sulfate, 5 mm CaCl2.2H2O, and 0.7 m mannitol, pH 5.8. After removing undigested materials and digested debris by filtration through a […] steel mesh, the enzymatic mixture was centrifuged at 1,000 rpm for 10 min. The protoplasts were resuspended in 5 mL of washing medium, and the process was repeated three times. Protoplasts were cultured at a density of 2×10^5 mL^−1 in 5-cm petri dishes in 3 mL of culture medium (Rao and Prakash, 1995) supplemented with different hormone or conjugate hormone regimes (Table IV). The cultures were kept at 25° C. in the dark. After 7 d, fresh medium was added to each petri dish, and the addition of medium was repeated on the 11th d of culture. […] After the development of microcalli visible to the naked eye, the cultures were transferred to light.

[2] = test system: protoplasts from BGL-1 leaves; assay: Protoplast culture with hormones or hormone conjugates, BGL-1 protoplasts; assay type: cell-based, Nicotiana tabacum; settings: for Division Efficiency / Plating Efficiency: BGL-1 protoplasts, hormone concentration in mg L^−1
Experimental: as §1, §2

Compound	Division Efficiency [1] [%]	Plating Efficiency [1] [%]	protoplast division and cell colony formation ([1]; zeatin-O-glucoside only)	Division Efficiency [2] [%]	Plating Efficiency [2] [%]	increase of cell division efficiency of BGL-1 protoplasts compared with UT protoplasts ([2]; exogenously supplied zeatin-O-glucoside) [%]
Zeatin-O-glucoside [Zeatin-O-glucoside (1.0)]	0	0	did not divide and form cell colonies	7.5 ± 1.2	3.7 ± 0.3	670
Naphthylacetic acid [Naphthylacetic acid (3.0)]	4.8 ± 0.7	3.3 ± 0.2	–	9.1 ± 1.8	4.3 ± 0.5	–
C/C(=C\CNc1ncnc2[nH]cnc12)CO [Zeatin (1.0), Zeatin]	6.8 ± 0.9	4.6 ± 0.3	–	10.6 ± 0.8	6.2 ± 0.4	–
